Test results taken from article PMC10178204, “Peptaibol Analogs Show Potent Antibacterial Activity against Multidrug Resistant Opportunistic Pathogens” (International Journal of Molecular Sciences, 2023).
In brackets after ≈: the same amount, converted by molar mass. Several values for one entry are separate records, joined by “and”; a condition that tells them apart may be missing. Equal entries are not always repeated. Non-standard residues stand in square brackets, D forms with d. Residues, ends and D or L forms follow the SMILES beside them. *: point of attachment. Leu(ol) = CC(C)C[C@H](N)CO; Octanoyl = CCCCCCCC(=O)*; Aib = CC(C)(N)C(=O)O

What was measured:
[1] = test system: Klebsiella pneumoniae ATCC 13833; conditions: MHB, 5 × 10^5 CFU/mL, 18 h, 35 °C, triplicate
Text: (§1) The antibacterial activity of the peptides was initially assessed on a panel of representative Gram-positive and Gram-negative organisms of high clinical relevance and commonly responsible for bacterial infections in both animals and humans. Bacillus subtilis ATCC 6633 (Bsu) was also included as a rod-shaped model Gram-positive organism. This first panel comprised: Enterococcus faecalis ATCC 29212 (Efa); Streptococcus pyogenes ATCC 12344 (Spy); and Staphylococcus aureus ATCC 25923 (Sau); Gram-negative: Escherichia coli CCUGT (Eco), Klebsiella pneumoniae ATCC 13833 (Kpn), Acinetobacter baumannii ATCC 17978 (Aba), and Pseudomonas aeruginosa ATCC 27853 (Pae) (Table 2). Both the minimum inhibitory concentration (MIC, Table 2) and the minimum bactericidal concentration (MBC, Table S1, Supporting Material) were determined.
(§2) The minimum inhibitory concentration (MIC) and the minimum bactericidal concentration (MBC) of the compounds were determined in triplicate using Mueller–Hinton broth (MHB). […] Therefore, we decided to dissolve all peptides in DMSO to a final concentration of 25 mg/mL, for consistency. The bacteria inoculum was 5 × 10^5 CFU/mL, as recommended by CLSI (Document M07-A10, 2015). […] Reference-type strains, including representatives of both Gram-positive bacteria (Bacillus subtilis ATCC 6633, Enterococcus faecalis ATCC 29212, Staphylococcus aureus ATCC 25923, the methicillin-resistant Staphylococcus aureus ATCC 43300 (MRSA), Streptococcus pyogenes ATCC 12344) and Gram-negative bacteria (Escherichia coli CCUGT, Klebsiella pneumoniae ATCC 13833, Pseudomonas aeruginosa ATCC 27853, and Acinetobacter baumannii ATCC 17978), were acquired from ATCC or CCUG culture collections. Other antibiotic-resistant clinical isolates were present in our collection at the University Teaching Hospital (Azienda Ospedaliero-Universitaria Senese ‘Santa Maria alle Scotte’) in Siena, Tuscany, Italy. Specifically, MDR carbapenem-hydrolyzing class D β-lactamase-producing Acinetobacter baumannii and metallo-β-lactamase-producing Pseudomonas aeruginosa were used in this study (Table 4).

[2] = test system: reference Gram-positive and Gram-negative strains
Text: as §1, §2

Escherichia coli CCUGT = conditions: MHB, 5 × 10^5 CFU/mL, 18 h, 35 °C, triplicate
Text: as §1, §2

[3] = test system: Streptococcus pyogenes ATCC 12344; conditions: MHB, 5 × 10^5 CFU/mL, 18 h, 35 °C, triplicate
Text: as §1, §2

[4] = test system: Staphylococcus aureus ATCC 25923; conditions: MHB, 5 × 10^5 CFU/mL, 18 h, 35 °C, triplicate
Text: as §1, §2

[5] = test system: Enterococcus faecalis ATCC 29212; conditions: MHB, 5 × 10^5 CFU/mL, 18 h, 35 °C, triplicate
Text: as §1, §2

[6] = test system: Acinetobacter baumannii ATCC 17978; conditions: for MBC Aba / MIC Aba: MHB, 5 × 10^5 CFU/mL, 18 h, 35 °C, triplicate; for MIC against A. baumannii, in molar units: corresponding to 2 and 8 μg/mL
Text: as §1, §2

[7] = test system: Pseudomonas aeruginosa ATCC 27853; conditions: MHB, 5 × 10^5 CFU/mL, 18 h, 35 °C, triplicate
Text: as §1, §2

[8] = test system: Bacillus subtilis ATCC 6633; conditions: MHB, 5 × 10^5 CFU/mL, 18 h, 35 °C, triplicate
Text: as §1, §2

[9] = test system: P. aeruginosa 101/1477 (IMP-1); conditions: MHB, 5 × 10^5 CFU/mL, 18 h, 35 °C, triplicate
Procedure: as §2

[10] = test system: S. aureus ATCC 43300 (MRSA); conditions: MHB, 5 × 10^5 CFU/mL, 18 h, 35 °C, triplicate
Procedure: as §2

[11] = test system: A. baumannii SI-310 (OXA-24); conditions: colistin-resistant isolate; MHB, 5 × 10^5 CFU/mL, 18 h, 35 °C, triplicate
Procedure: as §2

[12] = test system: P. aeruginosa VR-143/97 (VIM-1); conditions: MHB, 5 × 10^5 CFU/mL, 18 h, 35 °C, triplicate
Procedure: as §2

[13] = test system: P. aeruginosa 506/99 (VIM-2); conditions: MHB, 5 × 10^5 CFU/mL, 18 h, 35 °C, triplicate
Procedure: as §2

[14] = test system: A. baumannii SI-648 (OXA-23, OXA-51-like); conditions: MHB, 5 × 10^5 CFU/mL, 18 h, 35 °C, triplicate
Procedure: as §2

[15] = test system: A. baumannii SI-12 (OXA-23); conditions: MHB, 5 × 10^5 CFU/mL, 18 h, 35 °C, triplicate
Procedure: as §2

[16] = test system: P. aeruginosa VA-182/00 (VIM-2); conditions: MHB, 5 × 10^5 CFU/mL, 18 h, 35 °C, triplicate
Procedure: as §2

Molecule: 1-Oct-Aib-Gly-Leu-Aib-Lys-Lys-Leu-Aib-Lys-Ile-Lol [Peptide 5]
- MBC Kpn [1]: 16 µg/mL
- MIC Kpn [1]: 16 µg/mL
- MIC against six of the eight bacterial strains tested ([2]; reference panel): 4 to 8 µg/mL
- MIC against the other two strains ([2]; reference panel): 16 µg/mL
- MBC Eco (Escherichia coli CCUGT): > 16 µg/mL
- MIC Eco (Escherichia coli CCUGT): 8 µg/mL
- MBC Spy [3]: 4 µg/mL
- MIC Spy [3]: 4 µg/mL
- MBC Sau [4]: 16 µg/mL
- MIC Sau [4]: 16 µg/mL
- MBC Efa [5]: 8 µg/mL
- MIC Efa [5]: 4 µg/mL
- MBC Aba [6]: 16 µg/mL
- MIC Aba [6]: 4 µg/mL
- MIC against A. baumannii, in molar units [6]: 1.8 to 7.2 µM
- MBC Pae [7]: > 16 µg/mL
- MIC Pae [7]: 8 µg/mL
- MBC Bsu [8]: 16 µg/mL
- MIC Bsu [8]: 8 µg/mL
- MBC P. aeruginosa 101/1477 (IMP-1) [9]: 8 µg/mL
- MIC P. aeruginosa 101/1477 (IMP-1) [9]: 8 µg/mL
- MBC S. aureus ATCC 43300 (MRSA) [10]: 2 µg/mL
- MIC S. aureus ATCC 43300 (MRSA) [10]: 2 µg/mL
- MBC A. baumannii SI-310 (OXA-24) [11]: 4 µg/mL
- MIC A. baumannii SI-310 (OXA-24) [11]: 2 µg/mL
- MBC P. aeruginosa VR-143/97 (VIM-1) [12]: 8 µg/mL
- MIC P. aeruginosa VR-143/97 (VIM-1) [12]: 8 µg/mL
- MBC P. aeruginosa 506/99 (VIM-2) [13]: 8 µg/mL
- MIC P. aeruginosa 506/99 (VIM-2) [13]: 8 µg/mL
- MBC A. baumannii SI-648 (OXA-23, OXA-51-like) [14]: 4 µg/mL
- MIC A. baumannii SI-648 (OXA-23, OXA-51-like) [14]: 4 μg/mL and 4/4 μg/mL
- MBC A. baumannii SI-12 (OXA-23) [15]: 4 µg/mL
- MIC A. baumannii SI-12 (OXA-23) [15]: 4 μg/mL and 4/4 μg/mL
- MBC P. aeruginosa VA-182/00 (VIM-2) [16]: 8 µg/mL
- MIC P. aeruginosa VA-182/00 (VIM-2) [16]: 8 µg/mL

Molecule: CCCCCCCC(=O)NC(C)(C)C(=O)N[C@@H](CCCCN)C(=O)N[C@@H](CC(C)C)C(=O)NC(C)(C)C(=O)N[C@@H](CCCCN)C(=O)NCC(=O)N[C@@H](CC(C)C)C(=O)NC(C)(C)C(=O)NCC(=O)N[C@H](C(=O)N[C@H](CO)CC(C)C)[C@@H](C)CC [Peptide 1, 1-Oct-Aib-Lys-Leu-Aib-Lys-Gly-Leu-Aib-Gly-Ile-Lol] (Octanoyl-[Aib]KL[Aib]KGL[Aib]GI[Leu(ol)])
- MIC Kpn [1]: > 128 µg/mL
- lowest MIC ([2]; lowest value over the eight reference strains): 2 µg/mL
- MBC Eco (Escherichia coli CCUGT): 32 µg/mL (≈ 26.5 µM)
- MIC Eco (Escherichia coli CCUGT): 32 µg/mL (≈ 26.5 µM)
- MBC Spy [3]: 4 µg/mL (≈ 3.31 µM)
- MIC Spy [3]: 2 µg/mL (≈ 1.65 µM)
- MIC Sau [4]: 16 µg/mL (≈ 13.2 µM)
- MBC Efa [5]: 2 µg/mL (≈ 1.65 µM)
- MIC Efa [5]: 2 µg/mL (≈ 1.65 µM)
- MBC Aba [6]: 16 µg/mL (≈ 13.2 µM)
- MIC Aba [6]: 4 µg/mL (≈ 3.31 µM)
- MIC against A. baumannii, in molar units [6]: 1.8 to 7.2 µM
- MIC Pae [7]: 16 µg/mL (≈ 13.2 µM)
- MBC Bsu [8]: 16 µg/mL (≈ 13.2 µM)
- MIC Bsu [8]: 4 µg/mL (≈ 3.31 µM)
- MBC P. aeruginosa 101/1477 (IMP-1) [9]: 16 µg/mL (≈ 13.2 µM)
- MIC P. aeruginosa 101/1477 (IMP-1) [9]: 8 µg/mL (≈ 6.62 µM)
- MBC S. aureus ATCC 43300 (MRSA) [10]: 2 µg/mL (≈ 1.65 µM)
- MIC S. aureus ATCC 43300 (MRSA) [10]: 2 µg/mL (≈ 1.65 µM)
- MBC A. baumannii SI-310 (OXA-24) [11]: 4 µg/mL (≈ 3.31 µM)
- MIC A. baumannii SI-310 (OXA-24) [11]: 4 μg/mL and 4/4 μg/mL
- MBC P. aeruginosa VR-143/97 (VIM-1) [12]: 32 µg/mL (≈ 26.5 µM)
- MIC P. aeruginosa VR-143/97 (VIM-1) [12]: 32 µg/mL (≈ 26.5 µM)
- MBC P. aeruginosa 506/99 (VIM-2) [13]: 32 µg/mL (≈ 26.5 µM)
- MIC P. aeruginosa 506/99 (VIM-2) [13]: 16 µg/mL (≈ 13.2 µM)
- MBC A. baumannii SI-648 (OXA-23, OXA-51-like) [14]: 16 µg/mL (≈ 13.2 µM)
- MIC A. baumannii SI-648 (OXA-23, OXA-51-like) [14]: 8 µg/mL (≈ 6.62 µM)
- MBC A. baumannii SI-12 (OXA-23) [15]: 8 µg/mL (≈ 6.62 µM)
- MIC A. baumannii SI-12 (OXA-23) [15]: 4 µg/mL (≈ 3.31 µM)
- MBC P. aeruginosa VA-182/00 (VIM-2) [16]: 16 µg/mL (≈ 13.2 µM)
- MIC P. aeruginosa VA-182/00 (VIM-2) [16]: 16 µg/mL (≈ 13.2 µM)
